Results published in patent US12440493B2, “Combination therapy for treating cancer comprising substituted piperazines” (Eli Lilly and Company, priority 2020, dated 2025).
“And” between values parts separate entries of the source, which are not always exact repeats. Equal entries are not always repeated.

Key:
[1] = test system: IDH1(R132H) primary human AML cells; assay: Bone marrow AML clearance (flow cytometry), human AML PDx models in NSG mice; assay type: in vivo; details: for Bone Marrow AML Clearance: % hCD33 + hCD45+ (% of white cells) / Bone Marrow AML Clearance: % hCD45+ (% of white cells): QD, PO, each line one animal
Description: (§1) Compounds and Formulation. For in vivo studies, each test article is prepared at an appropriate concentration with vehicle. […] Compound A is prepared fresh at the appropriate concentrations with vehicle every 7 days and stored at 4° C. between doses. […] Cytarabine is prepared fresh weekly by dilution with sterile saline from stock solution of Cytarabine (injection 20 mg/mL, (Pfizer injectables')). Azacitidine (Sigma, Lot #MKBR7212) is formulated in sterile water and is prepared fresh daily immediately before dosing. In vivo human AML PDx models. […] Two models are used in the studies: […] As needed, splenocytes from tumor-bearing mice are used to propagate and expand the models, as described. Each test article is prepared as described above at an appropriate concentration with vehicle to give animals the doses tested in this study at a dosing volume of 10 μL/gram body weight. Mice receiving Compound A (PO, QD) are treated at the indicated doses for the duration of the study. The combination agents are dosed as follows: […] Treated mice are assessed in comparison to vehicle treated and naïve (non-tumor bearing) control mice. Body weight is recorded twice per week. […] AML PDx model propagation. […] Spleens are processed and splenocytes isolated as described below. Two hundred μL per subject of the splenocyte prep is injected IV (intravenous, tail vein) into recipient NSG mice. […] Once engraftment is confirmed, the mice are monitored biweekly until ready to be put on study. […] Submandibular blood is collected. Spleen/Splenocyte Processing and Prep. After excision, a spleen is weighed, and […] is placed in a standard sterile 15 mL polypropylene conical tube containing PBS, and placed on ice. […] The spleen is placed in ice cold sterile PBS in a 15 mL collection tube. The spleen is removed from the collection tube and placed in a 100 micron 50 mL conical tube cell strainer (BD Falcon #352360). The spleen is processed by gentle rubbing of the spleen tissue against the surface of the cell strainer with the end of a 5 mL syringe plunger in a circular motion. The surface of the strainer is rinsed with 10 mL room temperature sterile DPBS (HyClone SH30028) 3 times during the process. […] The cell pellet is collected by centrifugation (300×g) and washed three times with 30 mL sterile DPBS. The cells are counted and resuspended in DPBS at the desired implant concentration. Bone Marrow Collection. […] Flow cytometry analysis of human white cells. Submandibular blood samples from in vivo studies are collected. Fluor-conjugated antibody stains are added according to the manufacturer's instructions (anti-human CD33-PE (clone WM53, BD Cat #555450), anti-human CD14-APC (clone MφpP9, BD Cat #340436), anti-human CD15-V450 (clone HI98, BD Cat #561584), anti-human CD117-BV421 (clone YB5.B8, BD Cat #562434), anti-human […]7 (clone ICRF44, BD Cat #557754), anti-human […]7 (clone HI30, BD Cat #557748), and anti-human CD3-FITC (clone SK7, BD Cat #340542)). The samples are incubated for 30 minutes at room temperature, protected from light. After the incubation, 1.5 mL 1×BD Lyse/Fix (37° C., (BD #558049)) is added to each sample and incubated for 12 minutes at room temperature. The tubes are centrifuged at 300×g for 7 minutes. BD Lyse/Fix solution is aspirated and the cell pellet washed with stain/wash buffer 3 times (1 wash step consisted of: pellet resuspended in 3 mL stain/wash buffer, centrifuged at 300×g, aspirated wash). Fixed cells are then resuspended in 300 to 400 μL stain/wash buffer. Samples are analyzed on a Becton Dickinson FACSVerse Flow cytometer (Cat #651155 Serial #Z6511550447) using standard flow cytometry principles and techniques. Samples are analyzed on the same day as they are stained and fixed. Population gating and data analysis of percent population are performed in the FACSuite software on the FACSVerse cytometer. Percent population values from the data analysis are plotted in Graphpad Prism or in JMP13. […]

[2] = test system: IDH1(R132H) primary human AML cells; assay: AML clearance in peripheral blood (flow cytometry, % hCD33+hCD45+ of total white cells), human AML PDx models in NSG mice; assay type: in vivo; details: for AML clearance (% hCD33 + hCD45+ (of total white cells)): QD, PO, each value one animal
Description: as §1

C=CC(=O)N1CCN([C@@H](CC2CC2)c2ccc([C@H](C)Nc3ncc4c(n3)N(CC)C(=O)OC4)cc2)CC1 [Compound A, 7-[[(1S)-1-[4-[(1S)-2-cyclopropyl-1-(4-prop-2-enoylpiperazin-1-yl)ethyl]phenyl]ethyl]amino]-1-ethyl-4H-pyrimido[4,5-d][1,3]oxazin-2-one]
Bone Marrow AML Clearance: % hCD33 + hCD45+ (% of white cells) ([1]; 1 mg/kg Compound A): 87.74% and 92.23%
Bone Marrow AML Clearance: % hCD45+ (% of white cells) ([1]; 1 mg/kg Compound A): 88.34% and 92.36%
Bone Marrow AML Clearance: % hCD33 + hCD45+ (% of white cells) ([1]; 3.3 mg/kg Compound A, Table 1C): 98.6% and 44.3% and 98.54% and 86.55%
Bone Marrow AML Clearance: % hCD45+ (% of white cells) ([1]; 3.3 mg/kg Compound A, Table 1C): 98.36% and 43.99% and 98.15% and 86.21%
Bone Marrow AML Clearance: % hCD33 + hCD45+ (% of white cells) ([1]; 3.3 mg/kg Compound A, Table 2C): 72.73% and 84.3% and 99.41% and 91.97%
Bone Marrow AML Clearance: % hCD45+ (% of white cells) ([1]; 3.3 mg/kg Compound A, Table 2C): 72.6% and 84.16% and 99.3% and 91.11%
Bone Marrow AML Clearance: % hCD33 + hCD45+ (% of white cells) ([1]; 10 mg/kg Compound A): 8.65% and 4.27% and 1.09% and 0.78% and 1.84%
Bone Marrow AML Clearance: % hCD45+ (% of white cells) ([1]; 10 mg/kg Compound A): 8.66% and 4.28% and 1.11% and 0.78% and 1.85%
% human AML cells in bone marrow (of white cells; lower = more clearance) ([1]; group B: 1 mg Compound A, vehicle 86%): 90%
% human AML cells in bone marrow (of white cells; lower = more clearance) ([1]; group B: Compound A (3.3 mg/kg), azacitidine study, vehicle 94%): 87%
% human AML cells in bone marrow (of white cells; lower = more clearance) ([1]; group B: Compound A (3.3 mg/kg), cytarabine study, vehicle 94%): 78%
% human AML cells in bone marrow (of white cells; lower = more clearance) ([1]; group C: 10 mg Compound A, vehicle 86%): 2.3%
AML clearance (% hCD33 + hCD45+ (of total white cells)) ([2]; Treatment day 2, 3.3 mg/kg Compound A, Table 2A, 3.3 mg/kg): 17.05% and 19.48% and 22.89% and 20.16% and 18.6% and 25.83% and 19.49%
AML clearance (% hCD33 + hCD45+ (of total white cells)) ([2]; Treatment day 7, 1 mg/kg Compound A, 1 mg/kg): 12.21% and 7.04% and 6.97% and 8.4% and 10.28%
AML clearance (% hCD33 + hCD45+ (of total white cells)) ([2]; Treatment day 7, 10 mg/kg Compound A, 10 mg/kg): 4.04% and 3.35% and 6.37% and 4.2% and 2.73%
AML clearance (% hCD33 + hCD45+ (of total white cells)) ([2]; Treatment day 15, 3.3 mg/kg Compound A, Table 2A, 3.3 mg/kg): 35.68% and 39.36% and 39.41% and 22.01% and 44.8% and 40.7% and 29.24%
AML clearance (% hCD33 + hCD45+ (of total white cells)) ([2]; Treatment day 18, 3.3 mg/kg Compound A, 3.3 mg/kg): 20.86% and 33.61% and 41.83% and 32.38% and 38.57% and 42.91% and 20.85%
AML clearance (% hCD33 + hCD45+ (of total white cells)) ([2]; Treatment day 23, 1 mg/kg Compound A, 1 mg/kg): 16.54% and 9.05% and 15.88% and 9.45%
AML clearance (% hCD33 + hCD45+ (of total white cells)) ([2]; Treatment day 23, 10 mg/kg Compound A, 10 mg/kg): 4.97% and 1.6% and 8.52% and 2.88% and 2.41%
AML clearance (% hCD33 + hCD45+ (of total white cells)) ([2]; Treatment day 28, 3.3 mg/kg Compound A, Table 2A, 3.3 mg/kg): 32.12% and 43.09% and 32.66% and 35.22% and 35% and 33.35%
AML clearance (% hCD33 + hCD45+ (of total white cells)) ([2]; Treatment day 34, 3.3 mg/kg Compound A, 3.3 mg/kg): 27.18% and 34.09% and 34.27% and 48.87% and 20.33% and 33.11% and 34.28%
AML clearance (% hCD33 + hCD45+ (of total white cells)) ([2]; Treatment day 36, 1 mg/kg Compound A, 1 mg/kg): 16.96% and 20.94% and 15.66% and 13.65%
AML clearance (% hCD33 + hCD45+ (of total white cells)) ([2]; Treatment day 36, 10 mg/kg Compound A, 10 mg/kg): 4.67% and 3.89% and 4.32% and 2.11% and 2.39%
AML clearance (% hCD33 + hCD45+ (of total white cells)) ([2]; Treatment day 43, 3.3 mg/kg Compound A, Table 2A, 3.3 mg/kg): 59.89% and 65.62% and 61.99% and 47.87% and 52.96% and 62.25% and 27.91%
AML clearance (% hCD33 + hCD45+ (of total white cells)) ([2]; Treatment day 47, 3.3 mg/kg Compound A, 3.3 mg/kg): 64.21% and 29.4% and 31.38% and 63.41% and 45.19% and 20.69% and 37.68%
AML clearance (% hCD33 + hCD45+ (of total white cells)) ([2]; Treatment day 50, 1 mg/kg Compound A, 1 mg/kg): 26.13% and 48.71% and 41.07% and 42.54%
AML clearance (% hCD33 + hCD45+ (of total white cells)) ([2]; Treatment day 50, 10 mg/kg Compound A, 10 mg/kg): 2.9% and 3.66% and 5.08% and 2.11% and 1.55%
AML clearance (% hCD33 + hCD45+ (of total white cells)) ([2]; Treatment day 58, 3.3 mg/kg Compound A, Table 2A, 3.3 mg/kg): 67.45% and 59.45% and 67.73% and 53.95% and 44.7% and 48.88% and 71.52%
AML clearance (% hCD33 + hCD45+ (of total white cells)) ([2]; Treatment day 61, 3.3 mg/kg Compound A, 3.3 mg/kg): 68.85% and 72.89% and 47.42% and 56.98% and 82.54% and 38.58% and 74.64%
AML clearance (% hCD33 + hCD45+ (of total white cells)) ([2]; Treatment day 64, 1 mg/kg Compound A, 1 mg/kg): 51.67% and 57.72% and 55.61% and 45.53%
AML clearance (% hCD33 + hCD45+ (of total white cells)) ([2]; Treatment day 64, 10 mg/kg Compound A, 10 mg/kg): 0.94% and 1.66% and 1.11% and 1.55% and 0.62%
AML clearance (% hCD33 + hCD45+ (of total white cells)) ([2]; Treatment day 75, 3.3 mg/kg Compound A, 3.3 mg/kg): 67.91% and 54.26% and 56.55% and 90.69% and 45.05% and 68.73%
AML clearance (% hCD33 + hCD45+ (of total white cells)) ([2]; Treatment day 77, 3.3 mg/kg Compound A, Table 2A, 3.3 mg/kg): 74.81% and 79.27% and 43.75% and 60.02% and 75.38% and 59.74%
AML clearance (% hCD33 + hCD45+ (of total white cells)) ([2]; Treatment day 78, 1 mg/kg Compound A, 1 mg/kg): 65.17% and 75.95% and 68.32% and 56.56%
AML clearance (% hCD33 + hCD45+ (of total white cells)) ([2]; Treatment day 78, 10 mg/kg Compound A, 10 mg/kg): 0.89% and 1.72% and 0.4% and 0.45% and 0.46%
AML clearance (% hCD33 + hCD45+ (of total white cells)) ([2]; Treatment day 84, 1 mg/kg Compound A, 1 mg/kg): 98.27% and 84.52%
AML clearance (% hCD33 + hCD45+ (of total white cells)) ([2]; Treatment day 89, 3.3 mg/kg Compound A, 3.3 mg/kg): 66.75% and 67.29% and 63.26% and 92.41% and 41.16% and 62.6%
AML clearance (% hCD33 + hCD45+ (of total white cells)) ([2]; Treatment day 92, 10 mg/kg Compound A, 10 mg/kg): 0.8% and 2.36% and 0.4% and 0.19% and 0.32%
AML clearance (% hCD33 + hCD45+ (of total white cells)) ([2]; Treatment day 98, 3.3 mg/kg Compound A, Table 2A, 3.3 mg/kg): 55.63% and 73.72% and 73.42% and 85.43% and 64.03%
AML clearance (% hCD33 + hCD45+ (of total white cells)) ([2]; Treatment day −3, 3.3 mg/kg Compound A, 3.3 mg/kg): 17.5% and 23.88% and 24.18% and 19.46% and 14.94% and 20.14%
AML clearance (% hCD33 + hCD45+ (of total white cells)) ([2]; Treatment day −8, 1 mg/kg Compound A, 1 mg/kg): 6.97% and 3.7% and 3.2% and 7.02% and 11.07%
AML clearance (% hCD33 + hCD45+ (of total white cells)) ([2]; Treatment day −8, 10 mg/kg Compound A, 10 mg/kg): 2.43% and 7.61% and 4.1% and 6.27% and 6.53%
AML clearance (% hCD33 + hCD45+ (of total white cells)) ([2]; Treatment day −19, 3.3 mg/kg Compound A, Table 2A, 3.3 mg/kg): 6.86% and 3.77% and 4.41% and 2.93% and 5.26% and 4.84% and 2.39%
% peripheral blood AML cells (treatment group value) ([2]; day 43, group B: Compound A (3.3 mg/kg), azacitidine study, vehicle 71%): 52%
% peripheral blood AML cells (treatment group value) ([2]; day 47, group B: Compound A (3.3 mg/kg), cytarabine study, vehicle 86%): 39%
% peripheral blood AML cells (treatment group value) ([2]; day 50, group B: 1 mg Compound A, vehicle 32%): 37%
% peripheral blood AML cells (treatment group value) ([2]; day 50, group C: 10 mg Compound A, vehicle 32%): 2.8%
% peripheral blood AML cells (treatment group value) ([2]; day 64, group B: 1 mg Compound A, vehicle 67%): 51%
% peripheral blood AML cells (treatment group value) ([2]; day 64, group C: 10 mg Compound A, vehicle 67%): 1.1%
% peripheral blood AML cells (treatment group value) ([2]; day 78, group B: 1 mg Compound A, vehicle 129%): 65%
% peripheral blood AML cells (treatment group value) ([2]; day 78, group C: 10 mg Compound A, vehicle 129%): 0.66%
